Measurements as given in ChEMBL document CHEMBL1909046, “DrugMatrix in vitro pharmacology data”.

Legend:
[1] = DRUGMATRIX: Serotonin (5-Hydroxytryptamine) 5-HT3 radioligand binding (ligand: [3H] GR-65630); assay type: cell membranes, Membrane; conditions: hek293; Not Active = under 50% inhibition at 10 µM
[2] = target: T1, Cholecystokinin receptor type A (Homo sapiens, UniProt P32238); assay type: cell membranes, Membrane; conditions: 1321-n1; also: in other assays of this panel Not Active means under 50% inhibition at 10 µM
T1 sequence (P32238 whole entry): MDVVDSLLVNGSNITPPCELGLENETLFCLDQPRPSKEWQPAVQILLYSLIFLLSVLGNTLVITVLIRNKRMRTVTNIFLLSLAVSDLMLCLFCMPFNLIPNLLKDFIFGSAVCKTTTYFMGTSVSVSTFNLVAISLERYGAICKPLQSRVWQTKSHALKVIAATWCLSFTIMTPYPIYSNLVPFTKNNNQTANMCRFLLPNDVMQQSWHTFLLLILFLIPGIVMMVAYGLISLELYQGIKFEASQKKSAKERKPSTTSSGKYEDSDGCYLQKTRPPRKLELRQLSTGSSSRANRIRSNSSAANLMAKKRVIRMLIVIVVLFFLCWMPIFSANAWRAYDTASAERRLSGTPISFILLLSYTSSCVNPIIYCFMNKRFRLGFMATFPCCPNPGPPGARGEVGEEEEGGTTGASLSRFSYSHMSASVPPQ

[3] = target: 5-hydroxytryptamine receptor 6 (Homo sapiens, UniProt P50406); assay type: cell membranes, HeLa, Membrane; conditions: hela; also: in other assays of this panel Not Active means under 50% inhibition at 10 µM
5-hydroxytryptamine receptor 6, sequence (P50406 whole entry): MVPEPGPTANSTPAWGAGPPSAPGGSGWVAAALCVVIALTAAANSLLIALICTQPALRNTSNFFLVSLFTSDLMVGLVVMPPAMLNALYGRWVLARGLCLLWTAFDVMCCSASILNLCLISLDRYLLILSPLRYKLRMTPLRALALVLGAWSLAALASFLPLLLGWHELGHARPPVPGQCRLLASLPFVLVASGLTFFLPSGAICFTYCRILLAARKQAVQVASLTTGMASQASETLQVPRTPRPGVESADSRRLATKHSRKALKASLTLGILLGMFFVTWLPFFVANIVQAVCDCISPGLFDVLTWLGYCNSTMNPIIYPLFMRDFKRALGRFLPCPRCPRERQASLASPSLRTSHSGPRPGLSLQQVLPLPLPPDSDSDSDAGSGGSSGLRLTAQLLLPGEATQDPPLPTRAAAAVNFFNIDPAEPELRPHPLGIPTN

Melanocortin receptor 4 = Melanocortin receptor 4 (Homo sapiens, UniProt P32245); assay type: cell membranes, Membrane; conditions: hek293; also: in other assays of this panel Not Active means under 50% inhibition at 10 µM
Melanocortin receptor 4, sequence (P32245 whole entry): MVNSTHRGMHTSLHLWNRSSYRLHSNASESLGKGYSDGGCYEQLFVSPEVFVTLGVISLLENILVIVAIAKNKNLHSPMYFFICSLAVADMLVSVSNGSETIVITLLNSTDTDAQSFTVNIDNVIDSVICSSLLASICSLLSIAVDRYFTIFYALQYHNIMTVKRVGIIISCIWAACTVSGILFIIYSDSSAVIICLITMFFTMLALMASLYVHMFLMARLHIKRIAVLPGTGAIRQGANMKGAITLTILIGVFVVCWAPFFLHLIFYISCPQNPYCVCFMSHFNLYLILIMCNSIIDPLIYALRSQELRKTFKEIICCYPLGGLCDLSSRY

[4] = DRUGMATRIX: Glutamate, Kainate radioligand binding (ligand: [3H] Kainic acid); assay type: cell membranes, Rattus norvegicus, Wistar, Brain, Membrane; conditions: Not Active = under 50% inhibition at 10 µM
[5] = target: T2, Muscarinic acetylcholine receptor M4 (Homo sapiens, UniProt P08173); assay type: cell membranes, CHO-K1, Membrane; conditions: cho-k1; also: in other assays of this panel Not Active means under 50% inhibition at 10 µM
T2 sequence (P08173 whole entry): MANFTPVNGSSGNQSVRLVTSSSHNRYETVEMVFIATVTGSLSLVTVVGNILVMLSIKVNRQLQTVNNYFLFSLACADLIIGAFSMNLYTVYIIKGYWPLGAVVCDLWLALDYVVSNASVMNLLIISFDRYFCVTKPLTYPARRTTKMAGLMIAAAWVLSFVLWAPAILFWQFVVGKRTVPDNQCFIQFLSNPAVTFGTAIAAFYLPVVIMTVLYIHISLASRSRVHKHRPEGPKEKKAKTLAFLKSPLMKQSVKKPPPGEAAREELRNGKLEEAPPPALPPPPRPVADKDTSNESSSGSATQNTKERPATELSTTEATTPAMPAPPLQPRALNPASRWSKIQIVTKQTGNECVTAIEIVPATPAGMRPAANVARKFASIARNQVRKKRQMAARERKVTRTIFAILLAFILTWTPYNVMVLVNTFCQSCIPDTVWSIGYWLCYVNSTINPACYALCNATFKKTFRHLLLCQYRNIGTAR

[6] = DRUGMATRIX: Phosphodiesterase PDE4 enzyme inhibition (substrate: [3H]cAMP + cAMP); conditions: u-937; Not Active = under 50% inhibition at 10 µM

O=C(O)c1ccccc1 [BENZOIC ACID]
Not Active: IC50 [1] | Ki [1] | IC50 [2] | IC50 [3] | IC50 (Melanocortin receptor 4) | IC50 [4] | Ki [4] | IC50 [5] | IC50 [6] | Ki [6]

C[C@H]1C[C@H]2[C@@H]3CCC4=CC(=O)C=C[C@]4(C)[C@@]3(F)[C@@H](O)C[C@]2(C)[C@@]1(O)C(=O)CO [BETAMETHASONE]
Not Active: IC50 [1] | Ki [1] | IC50 [2] | IC50 [3] | IC50 (Melanocortin receptor 4) | IC50 [4] | Ki [4] | IC50 [5] | IC50 [6] | Ki [6]

Oc1ccccc1 [PHENOL]
Not Active: IC50 [1] | Ki [1] | IC50 [2] | IC50 [3] | IC50 (Melanocortin receptor 4) | IC50 [4] | Ki [4] | IC50 [5] | IC50 [6] | Ki [6]

C[C@H](C(=O)O)c1ccc2oc(-c3ccc(F)cc3)nc2c1 [FLUNOXAPROFEN]
Not Active: IC50 [1] | Ki [1] | IC50 [2] | IC50 [3] | IC50 (Melanocortin receptor 4) | IC50 [4] | Ki [4] | IC50 [5] | IC50 [6] | Ki [6]

C[C@@H]1[C@H](O)[C@@H](C)/C=C/C=C/C=C/C=C/C=C/C=C/C=C/[C@H](O[C@@H]2O[C@H](C)[C@@H](O)[C@H](N)[C@@H]2O)C[C@@H]2O[C@](O)(C[C@@H](O)C[C@@H](O)[C@H](O)CC[C@@H](O)C[C@@H](O)CC(=O)O[C@H]1C)C[C@H](O)[C@H]2C(=O)O [AMPHOTERICIN B]
Not Active: IC50 [1] | Ki [1] | IC50 [2] | IC50 [3] | IC50 (Melanocortin receptor 4) | IC50 [4] | Ki [4] | IC50 [5] | IC50 [6] | Ki [6]

COc1cc(NC(C)CCCN)c2ncccc2c1 (stereo not given) [PRIMAQUINE]
Not Active: IC50 [1] | Ki [1] | IC50 [2] | IC50 [3] | IC50 (Melanocortin receptor 4) | IC50 [4] | Ki [4] | IC50 [5] | IC50 [6] | Ki [6]

COc1cc(/C=C/C(=O)O)ccc1O [FERULATE]
Not Active: IC50 [1] | Ki [1] | IC50 [2] | IC50 [3] | IC50 (Melanocortin receptor 4) | IC50 [4] | Ki [4] | IC50 [5] | IC50 [6] | Ki [6]

CCN1CCN(C(=O)N[C@@H](C(=O)N[C@@H]2C(=O)N3[C@@H]2SC(C)(C)[C@@H]3C(=O)O)c2ccccc2)C(=O)C1=O [PIPERACILLIN]
Not Active: IC50 [1] | Ki [1] | IC50 [2] | IC50 [3] | IC50 (Melanocortin receptor 4) | IC50 [4] | Ki [4] | IC50 [5] | IC50 [6] | Ki [6]

C=CCN1CC[C@]23c4c5ccc(O)c4O[C@H]2/C(=N/N=C2\CC[C@@]4(O)[C@H]6Cc7ccc(O)c8c7[C@@]4(CCN6CC=C)[C@H]2O8)CC[C@@]3(O)[C@H]1C5 [NALOXONAZINE]
Not Active: IC50 [1] | Ki [1] | IC50 [2] | IC50 [3] | IC50 (Melanocortin receptor 4) | IC50 [4] | Ki [4] | IC50 [5] | IC50 [6] | Ki [6]

c1ccc2c(c1)Nc1ccccc1S2 [PHENOTHIAZINE]
Not Active: IC50 [1] | Ki [1] | IC50 [2] | IC50 [3] | IC50 (Melanocortin receptor 4) | IC50 [4] | Ki [4] | IC50 [5] | IC50 [6] | Ki [6]

Cl.NC[C@H]1CC[C@H](C(=O)Oc2ccc(CCC(=O)O)cc2)CC1 [CETRAXATE HYDROCHLORIDE]
Not Active: IC50 [1] | Ki [1] | IC50 [2] | IC50 [3] | IC50 (Melanocortin receptor 4) | IC50 [4] | Ki [4] | IC50 [5] | IC50 [6] | Ki [6]
